From patent US20250268925A1, “METHODS OF TREATING MEDICAL CONDITIONS AND INHIBITING LINE1 REVERSE TRANSCRIPTASE USING A SUBSTITUTED ADENINYL-PROPYLOXY PHOSPHONIC ACID OR RELATED COMPOUND” (ROME THERAPEUTICS, INC., priority 2021, published 2025)

Experiments:
[1] = target: T1, LINE1 reverse transcriptase (Homo sapiens, UniProt O00370); assay: Transient artificial-intron Cis LINE1 reporter assay; assay type: cell-based; parameters: expressed in transfected cells
Procedure: Intron-disrupted Firefly luciferase (FLuc) expression cassettes were generated as described by Xie, Y. et al. “Characterization of L1 retrotransposition with high-throughput dual-luciferase assays,” Nucleic Acid Res. (2011) Vol. 39, No. 3, e16. In addition, the plasmid contained an intact Renilla luciferase (RLuc) expression cassette on the vector backbone, in order to normalize transfection efficiency and measure potential cell toxicity.
HEK 293 cells were seeded in 96-well plates at 1,000 cells/well in 55 μL and grown for 24 hours. Cells were transfected with FuGeneHD (Promega) following the manufacturer's protocol. Each well received 0.133 ng plasmid, 0.4 μL FuGeneHD reagent, and 4.5 μL GlutaMAX-I-supplemented Opti-MEM I reduced-serum medium (Invitrogen). Cells were simultaneously treated with test compound serially diluted starting at 100 μM in a 3-fold dilution dose response.
Luminescence was measured using the Dual-Glo Luciferase Assay System (Promega) following the manufacturer's instructions. The ratio between FLuc and RLuc gene expression (each of which was normalized against its expression in a control well without test compound) was used to report LINE1 activity.

[2] = target: T1, LINE1 reverse transcriptase; assay: Stable artificial-intron Cis LINE1 reporter assay; assay type: cell-based; parameters: expressed in transfected cells; host or cells: HeLa Tet-On 3G (Takara, cat no 631183)
Description: A stable HeLa Tet-On 3G (Takara, cat no 631183) cell line expressing a bi-directional inducible LINE1 construct was generated as described in Xie, Y. et al. “Cell division promotes efficient retrotransposition in a stable L1 reporter cell line,” Mobile DNA (2013) 4:10. Single cell clones were screened for high Luciferase expression and the highest expression Firefly expressing clone was chosen for compound testing.
Test compounds were serially diluted in DMSO and spotted in 96-well plates. Subsequently the HeLa L1 artificial-intron reporter cells were plated into the compound-containing wells (8,000 cells/well), and the cells were induced for reporter expression with doxycycline (Sigma cat no D9891) at a final concentration of 500 ng/mL. Luminescence was measured 72 h after plating using the Dual-Glo Luciferase Assay System (Promega cat no E2940) following the manufacturer's instructions. The Firefly Luciferase activity (normalized against its activity in a control well without test compound) was used to report LINE1 activity.

[3] = CellTiter-Glo cell viability in THP1-Dual KO-TREX1 cells; assay type: cell-based; settings: human, 10 μM compound (highest dose), five days, read-out: CellTiter-Glo average inhibition (cell viability)
Procedure: (§1) THP1-Dual™ KO-TREX1 cells were purchased from Invivogen (cat #thpd-kotrex). The THP1-Dual™ KO-TREX1 cells were cultured in RPMI 1640, 10% heat-inactivated fetal bovine serum, 25 mM HEPES, 10 μg/mL Blasticidin, and 100 μg/mL Zeocin. THP1-Dual™ KO-TREX1 cells were treated with a dose titration of test compound in the presence of 1 μM 5-aza-2′-deoxycytidine (Sigma, cat #189825). Type 1 Interferon and cell viability were assessed after five days of treatment.
THP1-Dual™ KO-TREX1 cells were treated with 1 μM 5-aza-2′-deoxycytidine. The THP1-Dual™ KO-TREX1 cells (50 μL) were added to each well of the 384-well plate containing test compound titration at 10,000 cells/well. Cells were incubated at 37° C., 5% CO2 in a humidified incubator for five days. […] Luminescence was detected on a plate reader according to manufacturer's instructions. […] Percent induction of interferon was calculated using the following analysis: (Sample−Average DMSO)/(10 μM control reagent−Average DMSO)*100.
The remaining cells were assessed for cell viability by adding 30 μl of CellTiter-Glo (Promega, G9683) solution to each well, and placed on a shaker for 10 minutes at room temperature. Luminescence was detected on a plate reader, according to manufacturer's instructions. Percent inhibition of cell viability using CellTiter-Glo was calculated using the following analysis. […]

Type 1 Interferon = assay: Cellular assay for altering IFN production in THP1 TREX1 KO cells; assay type: cell-based; settings: THP1-Dual KO-TREX1 cells, 1 μM 5-aza-2′-deoxycytidine, five days; direction of effect per figure legend
Procedure: as §1
Stock solution of test compound was prepared in DMSO followed by a three-fold dilution in DMSO. Additional 50× dilution was prepared in cell culture media for each dilution. 10 μL of diluted test compound was then added to a 384-well plate.
THP1-Dual™ KO-TREX1 cells were treated with 1 μM 5-aza-2′-deoxycytidine. The THP1-Dual™ KO-TREX1 cells (50 μL) were added to each well of the 384-well plate containing test compound titration at 10,000 cells/well. Cells were incubated at 37° C., 5% CO2 in a humidified incubator for five days. On day five, 20 μL of cell supernatant was transferred to a 384-well, white-walled plate, followed by addition to each well of 50 μL of QUANTI-LUC solution containing stabilizer. Luminescence was detected on a plate reader according to manufacturer's instructions. Percent inhibition of interferon was calculated using the following analysis: (Average DMSO−Sample)/(Average DMSO−Average 30 μM control reagent)*100. Percent induction of interferon was calculated using the following analysis: (Sample−Average DMSO)/(10 μM control reagent−Average DMSO)*100.

[4] = target: T2, recombinant MBP-tagged LINE1 protein (238-1061) (Homo sapiens, UniProt O00370); assay: Homogeneous time-resolved fluorescence (HTRF) LINE1 RT assay; assay type: biochemical; settings: tetra(sodium) salt; 25° C., 60 minutes
T2 construct: recombinant MBP-tagged LINE1 protein (238-1061); made in house
Procedure: The LINE1 reverse transcriptase homogeneous time-resolved fluorescence (HTRF) assay was performed with recombinant MBP-tagged LINE1 protein (238-1061) (generated and purified according to procedures in Dai L. et al. BMC Biochemistry 2011; 12:18) in a 384-well format. Test compound was serially diluted in DMSO and further diluted in the assay buffer (50 mM Tris-HCl, 50 mM KCl, 10 mM MgCl2, 10 mM DTT, pH 8.1) to achieve a final DMSO concentration of 1%. The serially diluted compound was mixed with 64 ng/well of LINE1 enzyme, 5 nM of pre-annealed template/biotin-primer pair (synthesized at Generay Biotechnology), 10 nM of Fluorescein-12-dATP fluorescent probe (Perkin Elmer), and 1 μM dGTP/dCTP/dTTP (Thermo Fisher Scientific) in the assay buffer. The template/biotin-primer sequences were as follows:
(§2) After incubating at 25° C. for 60 minutes, the detection reagent (20 mM EDTA with streptavidin-terbium cryptate, Cisbio Bioassay) in the PPI buffer (Cisbio Bioassay) was added, and the mixture was incubated at 25° C. for 30 minutes. At the end of the incubation, fluorescence was read at ex/em=337/485 nm and ex/em=337/520 nm on an Envision 2104 plate reader (Perkin Elmer). The fluorescence ratio at 520/485 nm was used for the calculation. […] The IC50 was calculated by fitting the compound dose inhibition curve with a 4-parameter non-linear regression equation.

[5] = target: T3, HERV-K reverse transcriptase (2-596)-8His protein (Homo sapiens, UniProt V9H0F6); assay: Homogeneous time-resolved fluorescence (HTRF) HERV-K RT assay; assay type: biochemical; settings: tetra(sodium) salt; 25° C., 30 minutes
T3 construct: fused on or other part: C-terminal 8His tag
T3 sequence (V9H0F6 entry or part of it): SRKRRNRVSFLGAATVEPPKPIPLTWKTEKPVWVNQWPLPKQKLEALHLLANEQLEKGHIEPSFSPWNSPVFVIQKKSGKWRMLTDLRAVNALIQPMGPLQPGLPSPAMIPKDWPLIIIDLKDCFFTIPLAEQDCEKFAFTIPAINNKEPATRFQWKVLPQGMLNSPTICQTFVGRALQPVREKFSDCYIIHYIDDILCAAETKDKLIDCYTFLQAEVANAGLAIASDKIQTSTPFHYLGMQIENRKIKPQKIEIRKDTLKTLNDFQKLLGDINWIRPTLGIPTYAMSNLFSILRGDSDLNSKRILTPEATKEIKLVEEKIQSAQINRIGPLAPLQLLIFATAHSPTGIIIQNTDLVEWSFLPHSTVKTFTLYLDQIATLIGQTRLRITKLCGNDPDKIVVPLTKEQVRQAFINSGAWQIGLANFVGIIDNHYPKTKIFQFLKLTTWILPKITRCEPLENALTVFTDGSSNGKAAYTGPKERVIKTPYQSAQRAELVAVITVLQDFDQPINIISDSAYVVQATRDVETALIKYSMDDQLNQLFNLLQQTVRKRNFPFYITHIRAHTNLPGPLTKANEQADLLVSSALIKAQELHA
Procedure: The HERV-K reverse transcriptase homogeneous time-resolved fluorescence (HTRF) assay was performed in a 384-well format with HERV-K reverse transcriptase (2-596)-8His protein. Baculoviruses were created using Bac-to-Bac technology (Invitrogen). pFastBac donor plasmids containing HERV-K reverse transcriptase sequence (NCBI GenBank number AAC63291.1, J. Virology (1999) Vol. 73, No. 3, pp. 2365-2375) were transformed into DH10 Bac cells following the manufacturer's instructions. Recombinant bacmids were then isolated clonally and transfected into SF9 cells with lipofectin. HERV-K reverse transcriptase was expressed in the SF9 insect cells and then purified using immobilized metal affinity chromatography (IMAC) followed by size-exclusion chromatography (SEC). […]
as §2, with “30” for “60”, “20” for “(20”, “cryptate (Cisbio” for “cryptate, Cisbio”, “60” for “30”

[6] = HEK 293 cells, transient LINE1 reporter, no detectable IC50 when tested at concentrations up to 100 μM, read-out: IC50
[7] = HeLa Tet-On 3G L1 reporter cells, doxycycline 500 ng/mL, 72 h, Firefly luciferase, read-out: IC50
[8] = HEK 293 cells, FLuc/RLuc ratio, transient LINE1 reporter, read-out: IC50

Structure (SMILES) | IC50 [2, 7] | changes in IFN levels (inhibition or induction of IFN) (Type 1 Interferon) | also measured
Cc1cn([C@H]2C[C@H](N=[N+]=[N-])[C@@H](CO)O2)c(=O)[nH]c1=O [AZT (zidovudine), zidovudine, reference compound] | > 500 nM | – | IC50 [1, 6]: > 100000 nM
CC(C)OC(=O)[C@H](C)N[P@](=O)(CO[C@H](C)Cn1cnc2c(N)ncnc21)Oc1ccccc1 [Compound I-1] | – | inhibition of IFN | IC50 [1]: < 50 nM; cytotoxicity at 5 days, 10 μM [3]: 57%; IC50 [2]: < 50 nM
CC(C)OC(=O)C(C)(C)N[P@](=O)(CO[C@H](C)Cn1cnc2c(N)ncnc21)Oc1ccccc1 [Compound I-20] | < 50 nM | inhibition of IFN | cytotoxicity at 5 days, 10 μM [3]: 65%
CC(C)OC(=O)C(C)(C)N[P@@](=O)(CO[C@H](C)Cn1cnc2c(N)ncnc21)Oc1ccccc1 [Compound I-21] | 50 to 500 nM | induction of IFN | –
CC(C)OC(=O)[C@H](C)NP(=O)(CO[C@H](C)Cc1ccc2c(N)ncnn12)Oc1ccccc1 (some centres unmarked) [Compound I-115] | 50 to 500 nM | induction of IFN | –
C[C@H](Cn1cnc2c(N)ncnc21)OCP(=O)(O)O [Compound V-1] | > 500 nM | inhibition of IFN | IC50 [1, 8]: > 500 nM
CC(C)OC(=O)OCOP(=O)(CO[C@H](C)Cn1cnc2c(N)ncnc21)OCOC(=O)OC(C)C [Compound V-7] | 50 to 500 nM | – | IC50 [1, 8]: < 50 nM
C[C@H](Cc1ccc2c(N)ncnn12)OCP(=O)(O)O [Compound V-105] | > 500 nM | – | –
CC(C)OC(=O)OCOP(=O)(CO[C@H](C)Cc1ccc2c(N)ncnn12)OCOC(=O)OC(C)C [Compound V-106] | > 500 nM | – | –
CCCCCCCCCCCCCCCCOCCCOP(=O)(O)CO[C@H](C)Cn1cnc2c(N)ncnc21 [VI-1] | 50 to 500 nM | induction of IFN | –
Nc1ccn([C@H]2CO[C@@H](CO)S2)c(=O)n1 [apricitabine] | – | – | IC50 [1, 6]: > 100000 nM
C[C@H](Cn1cnc2c(N)ncnc21)OCP(=O)(O)OP(=O)(O)OP(=O)(O)O [drawing 1227] | – | – | IC50 [4]: 71 nM
C[C@H](Cn1cnc2c(N)ncnc21)OCP(=O)(O)OP(=O)(O)OP(=O)(O)O [drawing 1228] | – | – | IC50 [5]: 20 nM
Nc1ccn([C@@H]2CS[C@H](CO)O2)c(=O)n1 [lamivudine (3TC), lamivudine, reference compound] | > 500 nM | – | IC50 [1, 6]: > 100000 nM
Nc1nc(=O)c2ncn([C@@H]3C[C@H](CO)[C@H]3CO)c2[nH]1 [lobucavir, reference compound] | > 500 nM | – | IC50 [1, 6]: > 100000 nM
